Laboratory results taken from patent US8664271B2, “Stabilized leukotriene B4 (LTB4) agent pharmaceutical formulation” (LTB4 Sweden AB, priority 2004, dated 2014).

Tests used:
Assay type in all cases: physicochemical
[1] = Stability of aqueous LTB4 Na salt solution at pH 7.4 with or without EDTA (HPLC impurities); conditions: aqueous solution 5 mg/ml
Method: LTB4 (acid form) was obtained from Cascade Biochem (U.K.) in solution in ethanol/water, 95/5. The purity level of this starting material was about 98.5% (+0.3%) as assessed by reverse phase HPLC. The ethanolic LTB4 solution was neutralized with an equivalent of sodium hydroxide to obtain LTB4 sodium (Na) salt. The ethanolic solution of LTB4 Na salt was evaporated to dryness under reduced pressure using a rotoevaporator and a water bath (30° C.), until an oily residue is obtained. The residue was redisolved in Dulbeccos' phosphate buffered saline (DPBS) at pH 7.4 containing or not, 0.01% ethylenediaminetetraacetic acid (EDTA) to obtain a final concentration of 5 mg LTB4/ml. Solutions were dispensed in 2 ml type I borosilicate glass vials which were then sealed under argon using Teflon-lined rubber stoppers and aluminium caps. The samples were stored in the dark at 25±5° C. until analysis at the indicated time points. Analysis of LTB4 solutions was carried out by reverse phase HPLC using a C18, 5μ particle, 4.7X250 mm column (Nucleosil) and methanol/acetronitrile gradient elution; detection of LTB4 and impurities was performed on line using an HPLC UV spectrophotometer at 270 nm.

[2] = Forced degradation (40° C.) of aqueous LTB4 Na salt solutions at different concentrations; conditions: aqueous isotonic pH 7.5, 0.01% EDTA
Method: A solution of LTB4 (acid form) at the concentration of 12 mg/ml in ethanol/water, 95/5 (from Cascade Biochem, U.K.), was neutralized with an equivalent of sodium hydroxide to generate the Na salt. […] The ethanolic solution of LTB4 Na salt was evaporated (see Example 1) until an oily residue is obtained. The residue was then redissolved in a phosphate buffered sodium chloride solution (saline) (30 mM sodium phosphate, pH 7.5) containing 0.01% EDTA in order to obtain an isotonic solution of LTB4 Na salt at 25 mg/ml. LTB4 Na salt solution at 0.1 mg/ml was obtained by dilution of the 25 mg/ml solution with an isotonic 30 mM sodium phosphate buffered saline, pH 7.5 containing 0.01% EDTA. Aliquots of the solutions were dispensed in 2 ml type I glass vials as described in Example 1, and stored under air, in the dark, at 40±5° C. LTB4 and impurities were analyzed at the indicated times by reverse phase HPLC using UV detection at 270 nm.

[3] = Effect of pH (phosphate/glycine buffer) on stability of aqueous LTB4 Na salt solution at 1.75 mg/ml
Method: Aqueous isotonic LTB4 Na salt solutions at the concentration of 1.75 mg/ml in phosphate/glycine buffered saline (3 mM sodium phosphate and 10 mM glycine buffer, pH 7.5, 8.5, 9.5 and 10.5) containing 0.01% EDTA were obtained by dilution of a 25 mg/ml solution of LTB4 Na salt (see Example 2) with the appropriate phosphate/glycine buffered saline containing 0.01% EDTA. Solutions were dispensed in 2 ml vials for storage under air, in the dark at 4±4° C. and 20±5° C. for 9 months prior to reverse phase HPLC analysis of LTB4 and impurities as described in Example 1.

[4] = Effect of glycine buffer strength and pH on stability of aqueous LTB4 Na salt solutions; conditions: 5 months at 40° C.; for level of impurities: 35 μg/ml
Method: Aqueous isotonic LTB4 Na salt solutions at the concentration of 35 and 350 μg/ml in phosphate buffered saline ([…]) containing 0.01% EDTA and various concentrations of glycine (from 0.01 mM to 10 mM) were obtained by dilution of a 25 mg/ml solution of LTB4 Na salt (Example 2). Solutions of LTB4 Na salt at 35 and 350 μg/ml at the 4 different glycine concentrations were dispensed in 2 ml vials for storage under air in the dark at 40±5° C. for 5 months prior to reverse phase HPLC analysis of LTB4 and impurities as described in Example 1.

[5] = Stability of freeze-dried LTB4 Na salt solutions (mannitol, with or without HSA); conditions: for level of impurities: freeze-dried solution 35 μg/ml, pH 7.5, 4% mannitol
Method: Aqueous isotonic LTB4 Na salt solutions at the concentration of 35 μg/ml in phosphate buffered saline (3 mM sodium phosphate buffer, pH 7.5 or 9.5) containing 0.01% EDTA were obtained as described in Example 5. Mannitol was added to all solutions to the final concentration of 4% in order to generate a solid residue (mannitol bread) containing LTB4 Na salt and all components of the excipient upon freeze-drying. Fatty acid free (delipidated) human serum albumine (HSA, Sigma Chemicals, St-Louis, Mo.) was added to some of the solutions to the final concentration of 1 mg/ml prior to final pH adjustment (to 7.5 or 9.5). Solutions were dispensed in 2 ml vials, frozen at −20° C. and freeze-dried. The vials containing the freeze-dried solutions (mannitol breads) were then sealed as described in Example 1 (but under air instead of argon), and stored in the dark at 40±5° C. After 1.5 or 4.5 months, vials were opened and the mannitol breads (containing LTB4) were dissolved using 1 ml of water to regenerate the original LTB4 Na salt solutions at 35 μg/ml. LTB4 and impurities were then analyzed by reverse phase HPLC as described in Example 1.

[6] = Forced degradation of ethanolic solutions of LTB4 (acid form and Na salt)
Method: The ethanolic solution of LTB4 (acid form) (EtOH/water, 95/5) obtained from the manufacturer (Cascade Biochem, UK) was diluted with EtOH/water, 95/5 to generate ethanolic solutions of LTB4 (acid form) at 9 and 0.9 mg/ml. Ethanolic solutions of the sodium salt of LTB4 at 9 and 0.9 mg/ml were obtained by adding 1.05 equivalent of sodium hydroxide. Solutions of the sodium salt of LTB4 at the concentration of 9 and 0.9 mg/ml in 75/25 EtOH/10 mM glycine in water at pH 10.5 (sodium hydroxide), were obtained by mixing 3 volumes of solutions of the sodium salt of LTB4 at 12 and 1.2 mg/ml in EtOH/water, 95/5 with 1 volume of 40 mM glycine buffer at pH 10.5. Solutions were dispensed in 2 ml vials for storage under air in the dark at −80° C. and 40±5° C. for 17 months prior to reverse phase HPLC analysis of LTB4 and impurities as described in Example 1.

With `CCCCC/C=C\C[C@@H](O)/C=C/C=C/C=C\[C@@H](O)CCCC(=O)[O-].[Na+]` [LTB4 Na salt] as the compound, how does the impurity level ([1]; DPBS pH 7.4, 0.01% EDTA, 60 days of storage at 25° C.) read?
The impurity level was 2.9%.

What about the impurity level ([1]; DPBS pH 7.4, 0.01% EDTA, 90 days of storage at 25° C.) of the same compound?
Its impurity level is 8.6%.

And the “degradation” value ([1]; DPBS pH 7.4, 0.01% EDTA, up to 14 days of storage at 25° C.)?
The value was “no increase of degradation”.

And the “level of impurities” value ([1]; DPBS pH 7.4, no EDTA, 7 days of storage at 25° C.)?
Its value is “increased level of impurities”.

And the impurity level ([1]; DPBS pH 7.4, no EDTA, 14 days of storage at 25° C.)?
The impurity level was 23.3 % of LTB4 peak area.

What about the “stability of 25 mg/ml solution compared with 0.1 mg/ml solution” value [2] of the same compound?
Its value is “much less stable”.

What about the “effect of increasing pH on stability” value ([3]; 1.75 mg/ml, phosphate/glycine buffered saline pH 7.5 to 10.5, 0.01% EDTA, 9 months at 4° C. and 20° C.) of the same compound?
The value was “strikingly increases the stability”.

What about the “effect of increasing pH on solution stability” value ([3]; forced degradation, storage at 40° C., data not shown) of the same compound?
The value was “dramatic improvement”.

And the level of impurities ([4]; pH 7.5, 10 mM glycine, data not shown)?
Its level of impurities is 20%.

What about the level of impurities ([4]; pH 9.5, 10 mM glycine) of the same compound?
Its level of impurities is 6.5%.

And the “impact of glycine buffer concentration on stability” value ([4]; glycine 0.01 mM to 10 mM, pH 9.5, 35 μg/ml)?
The value was “little impact”.

What about the level of impurities ([5]; 1.5 months at 40° C.) of the same compound?
The level of impurities was 22.7%.

And the level of impurities ([5]; 4.5 months at 40° C.)?
The level of impurities was 51.3%.

What about the level of impurities ([5]; redissolved immediately (time 0)) of the same compound?
The level of impurities was 2.9%.

What about the “effect of elevation of pH from 7.5 to 9.5 prior to freeze-drying” value ([5]; freeze-dried, 1.5 months (with HSA) or 4.5 months at 40° C.) of the same compound?
Its value is “striking decrease in the level of impurities”.

And the “decrease in the level of impurities by addition of HSA” value ([5]; freeze-dried, pH 7.5, HSA 1 mg/ml, 1.5 months of storage at 40° C.)?
Its value is about 50%.

What about the impurity level ([6]; 0.9 mg/ml in 75/25 EtOH/10 mM glycine pH 10.5, 17 months at 40° C.) of the same compound?
Its impurity level is 4.3 % of AUC.

What about the impurity level ([6]; 0.9 mg/ml in 95/5 EtOH/water, 17 months at 40° C.) of the same compound?
The impurity level was 4.9 % of AUC.

What about the impurity level ([6]; 9 mg/ml in 75/25 EtOH/10 mM glycine pH 10.5, 17 months at 40° C.) of the same compound?
Its impurity level is 3.8%.

What about the level of impurities ([6]; 9.0 mg/ml in EtOH/water 95/5, 17 months at 40° C., AUC at 270 nm) of the same compound?
The level of impurities was 5.4 % of AUC.
